Measurements as given in patent publication US7538129B2, “Diazonamide A analog” (Board of Regents, The University of Texas System, priority 2005, dated 2009).
“And” between values parts separate entries of the source, which are not always exact repeats. Equal entries are not always repeated. “Also recorded” adds a separate entry of the source.

Key:
SKMEL-2 = assay: growth inhibition (GI50) of tumor cell lines; assay type: cell-based; settings: SKMEL-2, FIG. 1
Protocol: (§1) A number of tumor cell lines representing breast, lung, colon, ovarian and prostate cancer as well as melanoma were assayed under standard growth conditions in presence of varying amounts of diazonamide A, a hydroxylated form of Compound J, Compound J, paclitaxel and vinblastine. The results are graphed as the concentration that diminishes growth by a factor of two (GI50) in FIG. 1.

[1] = test system: ovarian cell line IGR-OV1; assay: growth inhibition (GI50) of tumor cell lines; assay type: cell-based; settings: IGR-OV1, FIG. 1
Protocol: as §1

PC-3 xenografts = assay: growth inhibition of PC-3 xenografts; assay type: in vivo, mice; settings: 20 mg/kg; for inhibition of growth of PC-3 xenografts: FIG. 4B; for % Max T/C / Log10 Tumor Cell Kill: PC3 (prostate), IV
Protocol: In FIG. 4B, the squares are the control, the dark circles are the data-points for Compound J and the light diamonds are data-points for paclitaxel.
The details of the protocol for Examples 19 and 20 are as follows:
• PC3 prostrate tumor cells and HCT116 colon tumor cells (acquired from the tumor repository Division of Cancer Treatment and Diagnosis (DCTD) of the NCI • Complete RPMI Media • RPMI (Cat# 11875-085, Invitrogen) • 10% Heat-inactivated (30′ 56° C.) Fetal Bovine Serum (Cat# 100-106, Gemini Bio-Products • 2 mM L-glutamine (Cat# 25030-081, Invitrogen) • 0.1 mM MEM Non-Essential Amino Acids Solution (Cat#11140-050, Invitrogen) • 10 U/ml Penicillin/10 μg/ml Streptomycin (Cat#15140-122, Invitrogen) • 1 mM Sodium Pyruvate (Cat#l 1360-070) • Trypsin-EDTA (Cat#25300-054, Invitrogen) • Ca^2+/Mg^2+-free Phosphate Buffered Saline, 5% dextrose in water • Cell Culture Dish 150 mm×25 mm (Cat# 430599, Coming, Inc.) • 10 and 25 ml pipets, standard pipet-aid, p200 and p1000 pipette tips and standard pipetmen • Athymic NCr-nu/nu nude mice at 6-12 weeks of age, either sex (Strain code: 01B74, NCI Frederick Animal Production Program—suppliers include Charles River Labs and Taconic Farms). Female mice of approximately 7 weeks of age were utilized for existing experiments. • Standard 1 cc tuberculin syringe, 30G½ and 25G⅝ needles (Becton Dickinson) • Falcon 5 ml tubes (Cat#352054) • 50 and 15 ml disposable plastic conical tubes (Falcon or similar vendor) • Trypan Blue Solution (0.4%) (Cat#T8154, Sigma) • Hausser phase contrast hemacytometer (Cat# 02-671-54, Fisher) • Ice bucket • Balance for weighing mice (accurate to 0.2 g) • Vernier calipers • Vivarium facility free from known pathogens (nude mice should be housed in isolation from conventional mice if possible—separate rooms or micro-isolator cages equipped with individual air flow; all animal housing, bedding, water should be autoclaved prior to use; standard irradiated mouse chow should be used; animals should be changed out of cages within laminar flow hood; investigators handling mice should be suitably garbed—disposable gown, bonnet, booties, gloves, mask) • AB-5 (Compound J) compound • Ethyl alcohol, 200 proof (Aaper, MFD 041205) • Cremaphor (Cat# C5135, Sigma) • Paclitaxel (Cat#ANP0010, Polymed Therapeutics) Procedure: • 1) Rapidly thaw PC3 or HCT116 cells (if necessary) in 37° C. water bath. Transfer contents to 9ml complete RPMI media. Spin 5′ at 1200 rpm (240 Xg). Discard media and resuspend pellet in 8 ml complete RPMI media. Plate in 100 mm×25 mm cell culture dish in 5% CO2, 37° C. humidified incubator. • 2) Allow to grow for 5-10 days, splitting (aspirate media, wash with 3-5 ml PBS, add 1 ml trypsin-EDTA, incubate 3-5′ at 37° C., add media to desired volume and transfer to multiple plates) 1:8 to 1:10 every 3-4 days as necessary to allow cells to enter phase of logarithmic growth. • 3) When cells are growing well, begin to expand to 150 mm×25 mm dishes. We use 20 ml of media in a 150 mm dish and use 2 ml of trypsin for splitting. When nearly confluent, there should be 2×10^7 cells/150 mm dish. • 4) Plan ahead to time arrival of nu/nu mice such that they can acclimate to animal facility for 1 week prior to injection of tumor cells. […] Plan to inject 10 million cells/mouse and allow for loss of cells/volume during injection process. That is, if 30 mice are to be injected, plan to harvest cells sufficient for at least 35 injections—35×10 million cells=3.5×10^8 cells. In the existing HCT116 experiment, 7.5×10^6 cells were injected per mouse. Five mice per group were utilized for AB-5 treatment and four mice per group were utilized for the control and paclitaxel treatments. In the existing PC3 experiment, 10^7 cells were injected. Six mice per group were utilized for the control treatment and five mice per group were utilized for the AB-5 and paclitaxel treatments. […]

[2] = test system: neutrophils (GR1+ cells) in bone marrow; assay: neutrophil counts in bone marrow; assay type: in vivo, mice; settings: for neutrophil counts in bone marrow: 5 mg/kg; for neutrophil counts in bone marrow (number of GR1+ cells in one femu): 20 mg/kg, FIG. 5A
Description: In addition to measuring the affect on tumors, the effect of paclitaxel and Compound J on neutrophils in […] and blood were obtained. […] The data are provided as the number of GR1+ cells in one femu.
The details of the protocol for Examples 19 and 20 are as follows: […]

MDA-MB-231 = assay: growth inhibition (GI50) of tumor cell lines; assay type: cell-based; settings: MDA-MB-231, FIG. 1
Protocol: as §1

[3] = test system: melanoma tumor cell lines; assay: growth inhibition (GI50) of tumor cell lines; assay type: cell-based; settings: FIG. 1
Protocol: as §1

[4] = test system: PTX10 ovarian tumor cell line; assay: survival of PTX10 ovarian tumor cell line; assay type: cell-based; settings: PTX10, FIG. 2
Description: Additional experiments testing the effect of Compound J and paclitaxel on the survival of PTX10ovarian tumor cell line are shown in FIG. 2. […] In FIG. 2, the circles represent Compound J and the diamonds represent paclitaxel.

[5] = pharmacokinetics, intratumoral concentration after intravenous injection; assay type: in vivo; settings: mice with MDA-MB-435 xenograft tumors
Protocol: Compound J was injected intravenously into mice containing xenograft tumors grown from MDA-MB-435 breast cancer cells. The intratumoral concentration of Compound J was measured as a function of time.

[6] = test system: MDA-MB-435 (breast) xenografts; assay: growth inhibition of MDA-MB-435 xenografts; assay type: in vivo, mice; settings: 20 mg/kg, IP

| Structure (SMILES) | GI50 (concentration that diminishes growth by a factor of two) (SKMEL-2) | GI50 (concentration that diminishes growth by a factor of two) [1] | inhibition of growth of PC-3 xenografts (PC-3 xenografts) | % Max T/C (PC-3 xenografts) | Log10 Tumor Cell Kill (PC-3 xenografts) | neutrophil counts in bone marrow [2] | neutrophil counts in bone marrow (number of GR1+ cells in one femu) [2] | GI50 (concentration that diminishes growth by a factor of two) (MDA-MB-231) | GI50 (concentration that diminishes growth by a factor of two) [3] | percentage of cells surviving (survival fraction against concentration) [4] | area under the curve [5] | half-life ([5]; mouse, tumor, read-out: terminal half-life) | Vd ([5]; mouse, tumor, read-out: volume of distribution) | #Tumor Free (day) [6] | % Max T/C [6] | neutrophil proliferation or cell counts in vivo ([2]; FIG. 5A legend) |
| --- | --- | --- | --- | --- | --- | --- | --- | --- | --- | --- | --- | --- | --- | --- | --- | --- |
| CC(=O)O[C@H]1C(=O)[C@@]2(C)[C@H]([C@H](OC(=O)c3ccccc3)[C@]3(O)C[C@H](OC(=O)[C@H](O)[C@@H](NC(=O)c4ccccc4)c4ccccc4)C(C)=C1C3(C)C)[C@]1(OC(C)=O)CO[C@@H]1C[C@@H]2O [paclitaxel, reference compound] | significantly less effective than the remaining four drugs | significantly less effective than the remaining four drugs | significantly inhibited tumor growth | 0% | 3.4 | reduction of neutrophil counts | reduction of neutrophil counts; also recorded: significantly lowered |  |  |  |  |  |  |  |  |  |
| CC(C)[C@H](O)C(=O)N[C@H]1Cc2ccc3c(c2)[C@]24C5=C(N=C(O5)[C@H](C(C)C)NC1=O)c1ncc(o1)-c1c[nH]c5cccc(c15)-c1cccc2c1NC4O3 (stereo in doubt) [Compound J] |  |  | comparable to paclitaxel; also recorded: significantly inhibited tumor growth | 0.3% | 3.4 | no effect | no effect | more effective than the remaining drugs | less effective than the remaining drugs | more effective than paclitaxel | 3010224 ng·min/mL | 298 min | 2.9 L/kg | 0/6 | 6.8% and 3.1% | no effect |
